Measurements published in US5463078A, “Anisomycin derivatives and anticancer agents, antifungal agents and antiprotozoan agents containing the same” (Ajinomoto Co., Inc., priority 1993, dated 1995).
≈ marks a conversion by molar mass, not a printed value. Read-outs that look alike come from different tables or passages of the source.

Key:
[1] = Measurement of stability of anisomycin derivatives in rat plasma; type: in vitro ADME
Method: Experiment 1: Measurement of stability of anisomycin derivatives in rat plasma
To investigate the stability of the present compounds in rat plasma, the half-life thereof was measured. For the measurement, an approximately 0.25 mg portion of each test compound was dissolved in 150 μl of rat plasma, and the solution was incubated at 37° C. Aliquots were taken over specific periods of time, and the amount of residual anisomycin derivative was measured by HPLC to determine the half-life thereof.

[2] = tested on: FM3A cells; assay: Inhibitory activity on proliferation of FM3A culture; type: cell-based, mouse; conditions: for IC50: Mus musculus, read-out: IC50 (50% proliferation inhibition concentration)
Method: Experiment 2: Measurement of inhibitory activity of anisomycin derivatives on proliferation of FM3A culture
The proliferation-inhibiting activity of the present compounds against a culture of FM3A cells derived from mouse mammary tumor was investigated. Into each well of a 96-well microplate was added 50 μl of 10^5 cells/ml of FM3A cells, which had been suspended in a Dulbecco-modified Eagle culture medium containing 10% fetal calf serum. The IC50 (50% proliferation inhibition concentration) was calculated based on the number of surviving cells for a prescribed concentration of the test compounds.

[3] = tested on: Candida albicans; assay: Antifungal activity: growth inhibition of Candida albicans; type: cell-based; conditions: potato dextrose agar, 25° C., 7 days
Method: (§1) Experiment 3: Measurement of antifungal activity of anisomycin derivatives
(§2) The growth-inhibiting activity of the present compounds against various fungi was investigated. Into each well of a 6-well microplate, 0.3 ml of a solution of each test compound and 2.7 ml of a sterile solution of potato dextrose agar culture medium (kept at a temperature of about 50° C.) were added. After solidification, 5 μl from each suspension of test cells (yeast: approx. 10^3 cells/ml; mold: approx. 10^4 spores/ml) was inoculated onto the above-mentioned agar medium, and the cultures were maintained at 25° C. for 7 days. The growth of the test cells was observed, and the minimum concentration (MIC value) was determined at which complete inhibition of growth occurred. The test compounds were used after adjustment to 1 mg/ml with dimethylsulfoxide and dilution with distilled water.

[4] = tested on: Saccharomyces cereviceae; assay: Antifungal activity: growth inhibition of Saccharomyces cereviceae; type: cell-based; conditions: potato dextrose agar, 25° C., 7 days
Method: as §1, §2

[5] = tested on: Cryptococcus neoformans; assay: Antifungal activity: growth inhibition of Cryptococcus neoformans; type: cell-based; conditions: potato dextrose agar, 25° C., 7 days
Method: as §1, §2

[6] = tested on: Aspergillus fumigatus; assay: Antifungal activity: growth inhibition of Aspergillus fumigatus; type: cell-based; conditions: potato dextrose agar, 25° C., 7 days
Method: as §1, §2

[7] = tested on: Mucor rouxii; assay: Antifungal activity: growth inhibition of Mucor rouxii; type: cell-based; conditions: potato dextrose agar, 25° C., 7 days
Method: as §1, §2

[8] = tested on: P388 leukemia tumor cells; assay: Antitumor effect of anisomycin derivatives in vivo (P388 leukemia, CDF1 mice); design: species or system mouse; conditions: P388 i.p. in CDF1 mice; 10 mg/kg i.p. once a day for 10 days
Method: Experiment 4: Antitumor effect of anisomycin derivatives in vivo
Into one group of 5 CDF1 mice, 1×10^6 P388 leukemia tumor cells were intraperitoneally transplanted. Beginning the next day, a 10 mg/kg portion of the test compound dissolved in 0.2 ml of a solution containing an equal volume of dimethylsulfoxide and saline was administered to the mice intraperitoneally once a day for 10 days. The increase in the life span of the mice in days (ILS) was determined according to the following equation: [formula]

[9] = Stability in the blood; conditions: in words
[10] = tested on: protein synthesis; conditions: in words; J. Biol. Chem., vol. 242, p. 3226, 1967; cited from earlier work
[11] = 168 h, read-out: MIC (minimum concentration at which complete inhibition of growth occurred)

In the case of COc1ccc(CC2NCC(O)C2OC(C)=O)cc1 (single isomer, unassigned) [Anisomycin, anisomycin], the Half-life ([1]; rat plasma, 37° C., residual amount by HPLC, read-out: Half-life) is reported as 0.05 h, the “IC50 (50% proliferation inhibition concentration)” value [2] is reported as 0.02 µg/mL (≈ 0.0754 µM) and the “MIC (minimum concentration at which complete inhibition of growth occurred)” value [3] is reported as 100 µg/mL. The “MIC (minimum concentration at which complete inhibition of growth occurred)” value [4] was 12.5 µg/mL, the “MIC (minimum concentration at which complete inhibition of growth occurred)” value [5] was 25 µg/mL and the “MIC (minimum concentration at which complete inhibition of growth occurred)” value [6] was greater than 100 µg/mL. The “MIC (minimum concentration at which complete inhibition of growth occurred)” value [7] was greater than 100 µg/mL, the “ILS (increase in the life span of the mice)” value [8] was 0% and the “stability in the blood” value [9] was “extremely unstable in the blood and is rapidly hydrolyzed”. For the same compound, the cytotoxic activity [10] was “strong cytotoxic activity due to its inhibitory effect on protein synthesis”.

In the case of CNC(=O)OC1C(O)CNC1Cc1ccc(OC)cc1 (stereo not shown) [Example 1, 3-O-methylcarbamoyl-deacetylanisomycin], the Half-life [1] is reported as “No decomposition” and the IC50 [2] is reported as 0.06 µg/mL (≈ 0.214 µM).

With COc1ccc(CC2NCC(O)C2OC(N)=O)cc1 (stereo not shown) [Example 2, 3-O-carbamoyldeacetylanisomycin] the Half-life [1] was “No decomposition”.

In the case of COc1ccc(CC2NCC(O)C2OC(=O)NCCCc2ccccc2)cc1 (stereo not shown) [Example 5, 3-O-(3-phenylpropyl)carbamoyldeacetylanisomycin], the Half-life [1] is reported as “No decomposition”.

In the case of COc1ccc(CC2NCC(O)C2OC(=O)Nc2ccccc2)cc1 (stereo not shown) [Example 11, 3-O-phenylcarbamoyldeacetylanisomycin], the Half-life [1] is reported as “No decomposition”.

COc1ccc(CC2NCC(OC(C)=O)C2OC(N)=O)cc1 (stereo not shown) [Example 15, 4-O-acetyl-3-O-carbamoylanisomycin] showed a Half-life ([1]; rat, plasma) of 6.67 h and an IC50 [2] of 0.039 µg/mL (≈ 0.126 µM).

Work on CCCCCC(=O)OC1CNC(Cc2ccc(OC)cc2)C1OC(N)=O (stereo not shown) [Example 16, 4-O-hexanoyl-3-O-carbamoyldeacetylanisomycin] yielded an IC50 [2] of 0.039 µg/mL (≈ 0.107 µM).

CCCCCCC(=O)OC1CNC(Cc2ccc(OC)cc2)C1OC(N)=O (stereo not shown) [Example 17, 4-O-heptanoyl-3-O-carbamoyldeacetylanisomycin] showed an IC50 [2] of 0.03 µg/mL (≈ 0.0793 µM).

In the case of CCCCCCCCCCCC(=O)OC1CNC(Cc2ccc(OC)cc2)C1OC(N)=O (stereo not shown) [Example 18, 4-O-dodecanoyl-3-O-carbamoyldeacetylanisomycin], the IC50 [2] is reported as less than 0.02 µg/mL, the MIC [3, 11] is reported as 50 µg/mL (≈ 111 µM) and the MIC [4, 11] is reported as 25 µg/mL (≈ 55.7 µM). For the same compound, the MIC [5, 11] was 3.1 µg/mL (≈ 6.91 µM), the MIC [6, 11] was 50 µg/mL (≈ 111 µM) and the MIC ([7]; Amylomyces rouxii, 168 h, read-out: MIC (minimum concentration at which complete inhibition of growth occurred)) was 50 µg/mL (≈ 111 µM). The “ILS (increase in the life span of the mice)” value [8] was 44%.

For COCOC1C(O)CNC1Cc1ccc(OC)cc1 (stereo not shown) [Example 22, 3-O-methoxymethyldeacetylanisomycin], the Half-life [1] was “No decomposition” and the IC50 [2] was 0.062 µg/mL (≈ 0.232 µM).
